In ChEMBL document CHEMBL1201862, “PubChem BioAssay data set” (2004):
The source made the active and inactive calls.

Key:
[1] = molecular target: T1, Rac GTPase-activating protein 1 (Homo sapiens, UniProt Q9H0H5); test: blockers of MgcRacGAP-driven Rac1 GTP hydrolysis – biochemical, ADP Hunter fluorescence, primary and confirmatory, confirmation (AID 624330); format: functional
T1 sequence (Q9H0H5 whole entry): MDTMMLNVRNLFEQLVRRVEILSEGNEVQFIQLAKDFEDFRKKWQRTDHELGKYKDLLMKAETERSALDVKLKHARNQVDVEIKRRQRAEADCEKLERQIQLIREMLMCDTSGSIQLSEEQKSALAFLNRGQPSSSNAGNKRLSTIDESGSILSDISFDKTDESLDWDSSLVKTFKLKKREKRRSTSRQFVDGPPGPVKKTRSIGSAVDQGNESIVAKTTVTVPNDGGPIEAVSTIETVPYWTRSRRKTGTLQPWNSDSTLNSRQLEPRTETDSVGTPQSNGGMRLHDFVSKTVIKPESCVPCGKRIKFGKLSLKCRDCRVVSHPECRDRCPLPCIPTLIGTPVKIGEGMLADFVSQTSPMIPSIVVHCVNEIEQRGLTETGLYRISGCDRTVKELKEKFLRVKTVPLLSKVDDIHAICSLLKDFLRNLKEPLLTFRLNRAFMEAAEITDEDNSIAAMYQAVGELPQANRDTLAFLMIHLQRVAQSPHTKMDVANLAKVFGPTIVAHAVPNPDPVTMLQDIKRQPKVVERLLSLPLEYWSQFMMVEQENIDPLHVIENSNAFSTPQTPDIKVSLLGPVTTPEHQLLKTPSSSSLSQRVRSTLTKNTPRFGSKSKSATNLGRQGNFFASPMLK

[2] = molecular target: T2, Neuropeptide Y receptor type 1 (Homo sapiens, UniProt P25929); test: IC50 of human NPY-Y1 blockers – cell-based, dose response (AID 1277); format: functional
T2 sequence (P25929 whole entry): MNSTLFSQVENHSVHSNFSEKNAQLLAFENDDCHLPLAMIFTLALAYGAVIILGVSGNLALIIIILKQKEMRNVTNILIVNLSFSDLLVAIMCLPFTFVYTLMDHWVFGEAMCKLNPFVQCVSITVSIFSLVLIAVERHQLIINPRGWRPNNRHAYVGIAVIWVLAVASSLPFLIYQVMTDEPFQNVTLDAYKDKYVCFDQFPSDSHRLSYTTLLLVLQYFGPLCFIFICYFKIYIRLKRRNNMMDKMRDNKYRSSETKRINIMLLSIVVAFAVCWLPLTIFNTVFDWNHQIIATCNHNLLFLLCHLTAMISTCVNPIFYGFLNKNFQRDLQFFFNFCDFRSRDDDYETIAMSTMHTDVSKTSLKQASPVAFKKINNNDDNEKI

[3] = molecular target: T3, Neuropeptide Y receptor type 2 (Homo sapiens, UniProt P49146); test: IC50 for human NPY-Y2 blockade – cell-based, counter-screen for NPY-Y1 antagonist project, dose response (AID 1278); format: functional
T3 sequence (P49146 whole entry): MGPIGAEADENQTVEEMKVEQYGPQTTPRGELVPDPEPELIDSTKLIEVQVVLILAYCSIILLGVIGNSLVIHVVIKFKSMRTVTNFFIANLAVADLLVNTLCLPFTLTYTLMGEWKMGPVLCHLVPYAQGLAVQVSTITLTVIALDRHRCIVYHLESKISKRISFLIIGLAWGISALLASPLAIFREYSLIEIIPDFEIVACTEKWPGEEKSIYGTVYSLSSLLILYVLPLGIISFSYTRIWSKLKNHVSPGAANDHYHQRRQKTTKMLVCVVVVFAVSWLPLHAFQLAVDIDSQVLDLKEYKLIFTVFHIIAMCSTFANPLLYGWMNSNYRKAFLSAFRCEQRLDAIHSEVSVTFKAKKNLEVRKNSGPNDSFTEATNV

HEK293 = test: Fluorescence-based counterscreen for potentiators or agonists of NPY-Y2: cell-based high-throughput dose response assay to identify inhibitors of cyclic nucleotide gated ion channel (CNGC) activity. In this assay, the parental HEK293 cell line transfected with a cyclic-nucleotide gated ion channel (CNGC)-based cAMP sensor is used to measure inhibition of isoproterenol-induced CNGC activity by test compound.; format: functional; details: Homo sapiens
[4] = molecular target: T2, Neuropeptide Y receptor type 1; test: Fluorescence-based counterscreen for agonists of NPY-Y2: cell-based high-throughput dose response assay for agonists of NPY-Y1.; format: functional
[5] = molecular target: T3, Neuropeptide Y receptor type 2; test: Fluorescence-based cell-based high-throughput dose response assay for agonists of NPY-Y2. [Related pubchem assays: 1703 (Screening assay (CNGC inhibitors).), 1359 (Screening assay (NPY-Y2 potentiators or agonists).), 1304 (Screening assay (NPY-Y1 potentiators or agonists).), 1710 (Screening assay (NPY-Y2 agonists).), 1791 (Summary AID.)]; format: functional
[6] = molecular target: T4, Sphingosine 1-phosphate receptor 2 (Homo sapiens, UniProt O95136); test: Dose Response Cell Based Assay for Agonists of the S1P2 Receptor of Purchased Analogues. [Related pubchem assays: 729, 843, 854, 736 ]; format: functional
T4 sequence (O95136 whole entry): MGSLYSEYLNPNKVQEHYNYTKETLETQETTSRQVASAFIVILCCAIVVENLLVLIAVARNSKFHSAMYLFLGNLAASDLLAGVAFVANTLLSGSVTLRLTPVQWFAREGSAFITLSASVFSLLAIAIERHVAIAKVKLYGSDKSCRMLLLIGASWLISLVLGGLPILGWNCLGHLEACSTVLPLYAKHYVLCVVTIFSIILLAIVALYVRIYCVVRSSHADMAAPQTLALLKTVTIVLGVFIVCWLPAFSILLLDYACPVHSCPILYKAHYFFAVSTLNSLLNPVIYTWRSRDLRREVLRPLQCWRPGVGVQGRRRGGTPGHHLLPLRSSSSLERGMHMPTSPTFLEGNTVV

[7] = Counterscreen for IDE inhibitors: Luminescence-based cell-based high throughput dose response assay to identify compounds that are cytotoxic to HEK cells. [Related pubchem assays: 434962 (Primary screen (IDE inhibitors in singlicate)), 449730 (Counterscreen (Cytotoxicity in triplicate)), 435028 (Confirmation (IDE inhibitors in triplicate)) …; format: functional; details: HEK293
Insulin-degrading enzyme = molecular target: T5, Insulin-degrading enzyme (Homo sapiens, UniProt P14735); test: Dose Response: Fluorescence polarization-based cell-based high throughput dose response assay for inhibitors of insulin-degrading enzyme (IDE). [Related pubchem assays: 434962 (Primary screen (IDE inhibitors in singlicate)), 449730 (Counterscreen (Cytotoxicity in triplicate)), 435028 (Confirmation (IDE inhibitors in triplicate)), 434984 (Summary …; format: functional
T5 sequence (P14735 whole entry): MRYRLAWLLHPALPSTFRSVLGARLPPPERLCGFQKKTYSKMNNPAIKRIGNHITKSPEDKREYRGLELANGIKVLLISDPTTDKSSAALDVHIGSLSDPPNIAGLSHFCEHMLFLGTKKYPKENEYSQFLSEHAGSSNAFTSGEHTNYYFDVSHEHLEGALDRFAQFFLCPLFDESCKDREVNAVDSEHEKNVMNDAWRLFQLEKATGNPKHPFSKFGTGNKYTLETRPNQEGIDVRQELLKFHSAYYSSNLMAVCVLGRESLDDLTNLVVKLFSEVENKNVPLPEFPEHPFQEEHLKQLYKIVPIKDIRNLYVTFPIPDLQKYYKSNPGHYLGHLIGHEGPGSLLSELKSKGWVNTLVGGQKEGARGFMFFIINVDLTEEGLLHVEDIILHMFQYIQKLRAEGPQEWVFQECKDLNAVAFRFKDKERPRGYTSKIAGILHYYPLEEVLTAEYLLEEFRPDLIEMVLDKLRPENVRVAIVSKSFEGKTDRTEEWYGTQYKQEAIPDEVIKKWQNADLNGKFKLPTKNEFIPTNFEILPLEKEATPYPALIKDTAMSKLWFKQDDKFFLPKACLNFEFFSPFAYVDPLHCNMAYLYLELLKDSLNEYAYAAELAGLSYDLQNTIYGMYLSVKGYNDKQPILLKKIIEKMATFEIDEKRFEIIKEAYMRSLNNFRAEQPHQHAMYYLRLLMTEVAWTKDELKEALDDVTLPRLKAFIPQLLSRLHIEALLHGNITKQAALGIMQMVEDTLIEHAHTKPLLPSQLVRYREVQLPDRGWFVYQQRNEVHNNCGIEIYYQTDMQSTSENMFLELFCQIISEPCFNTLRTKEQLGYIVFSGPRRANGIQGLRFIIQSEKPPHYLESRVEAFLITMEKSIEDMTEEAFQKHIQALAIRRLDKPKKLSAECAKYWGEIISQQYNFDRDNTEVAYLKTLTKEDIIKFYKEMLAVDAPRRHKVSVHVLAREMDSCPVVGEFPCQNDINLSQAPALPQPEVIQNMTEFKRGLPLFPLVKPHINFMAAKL

[8] = mitochondrial function rescue without frataxin homolog – Friedreich's ataxia, plus single-dose screen, dose response (AID 1465); format: functional;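 note: yeast depleted of Yfh1p frataxin homolog grown on glycerol needing respiration; WST-1 tetrazolium dye reduction as measure of cellular dehydrogenase metabolic activity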
[9] = molecular target: Sphingosine 1-phosphate receptor 1 (Homo sapiens, UniProt P21453); test: Dose Response Cell-Based Assay for Agonists of the Sphingosine 1-Phosphate Receptor 1 (S1P1): Purchased Analogues. [Related pubchem assays: 1192, 373, 439 ]; format: functional
Sphingosine 1-phosphate receptor 1, sequence (P21453 whole entry): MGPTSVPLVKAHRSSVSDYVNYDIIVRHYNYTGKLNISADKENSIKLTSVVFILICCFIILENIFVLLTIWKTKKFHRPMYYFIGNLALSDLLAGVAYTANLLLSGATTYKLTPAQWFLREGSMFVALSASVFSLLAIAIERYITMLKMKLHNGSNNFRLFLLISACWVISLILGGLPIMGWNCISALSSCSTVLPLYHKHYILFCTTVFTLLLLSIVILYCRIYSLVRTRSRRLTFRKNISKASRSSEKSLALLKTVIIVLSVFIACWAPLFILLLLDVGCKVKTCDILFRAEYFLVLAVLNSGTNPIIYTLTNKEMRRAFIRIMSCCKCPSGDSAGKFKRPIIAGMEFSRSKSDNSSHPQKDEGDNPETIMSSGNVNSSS

[10] = molecular target: Sphingosine 1-phosphate receptor 3 (Homo sapiens, UniProt Q99500); test: Dose Response Cell-Based Assay for Agonists of the Sphingosine 1-Phosphate Receptor 3 (S1P3): Purchased Analogues. [Related pubchem assays: 373, 439 ]; format: functional
Sphingosine 1-phosphate receptor 3, sequence (Q99500 whole entry): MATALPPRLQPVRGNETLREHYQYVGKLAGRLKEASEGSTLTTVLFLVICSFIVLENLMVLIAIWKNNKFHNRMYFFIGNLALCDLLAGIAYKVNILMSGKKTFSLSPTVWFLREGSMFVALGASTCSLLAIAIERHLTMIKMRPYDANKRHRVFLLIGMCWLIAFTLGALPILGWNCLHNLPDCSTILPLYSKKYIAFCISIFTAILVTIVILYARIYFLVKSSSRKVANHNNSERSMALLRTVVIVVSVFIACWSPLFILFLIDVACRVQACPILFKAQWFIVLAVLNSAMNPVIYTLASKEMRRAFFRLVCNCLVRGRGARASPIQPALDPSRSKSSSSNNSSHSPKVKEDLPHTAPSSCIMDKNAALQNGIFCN

[11] = molecular target: T4, Sphingosine 1-phosphate receptor 2; test: Dose Response Cell-Based Assay for Agonists of the Sphingosine 1-Phosphate Receptor 2 (S1P2): Purchased Analogues. [Related pubchem assays: 1192, 373, 439 ]; format: functional
[12] = molecular target: T6, E3 ubiquitin-protein ligase XIAP (Homo sapiens, UniProt P98170); test: Counter Screen using XIAP-Bir3 for Chemical Antagonists of Bir1/2 domains of IAP-family anti-apoptotic proteins. [Related pubchem assays (depositor defined):AID1018, AID1449, AID1514, AID1638, AID1749, AID1750, AID488957, AID488963]
T6 sequence (P98170 whole entry): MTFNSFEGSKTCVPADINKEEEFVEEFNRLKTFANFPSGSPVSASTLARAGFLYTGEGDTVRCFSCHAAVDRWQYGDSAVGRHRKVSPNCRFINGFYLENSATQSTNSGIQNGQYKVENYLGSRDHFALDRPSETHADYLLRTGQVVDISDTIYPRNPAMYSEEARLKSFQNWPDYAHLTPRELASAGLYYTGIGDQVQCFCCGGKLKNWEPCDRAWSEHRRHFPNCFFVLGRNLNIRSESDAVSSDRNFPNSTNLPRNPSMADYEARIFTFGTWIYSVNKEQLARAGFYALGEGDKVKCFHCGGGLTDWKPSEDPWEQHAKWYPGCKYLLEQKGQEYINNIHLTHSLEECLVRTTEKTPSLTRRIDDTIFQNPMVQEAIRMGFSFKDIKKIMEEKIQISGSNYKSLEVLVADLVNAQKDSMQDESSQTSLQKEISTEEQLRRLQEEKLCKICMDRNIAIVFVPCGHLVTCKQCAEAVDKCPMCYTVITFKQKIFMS

[13] = molecular target: T6, E3 ubiquitin-protein ligase XIAP; test: small molecules displacing peptide from XIAP – biochemical, IAP family, fluorescence polarization (AID 1018); format: functional

## COc1ccc(Oc2c(C)n[nH]c2-c2ccc(O)cc2O)cc1
[1]
  IC50: 47.4 µM (active)
[2]
  IC50: > 35 µM (not active)
[3]
  IC50: > 35 µM (not active)

## O=C(/C=C/c1cn(-c2ccccc2)nc1-c1cccnc1)N1CCCC1
HEK293
  EC50: > 35.4 µM (not active)
[4]
  EC50: > 35.4 µM (not active)
[5]
  EC50: > 35.4 µM (not active)

## COc1ccc(C(N)=O)c(OCC(=O)c2cc(C)n(Cc3ccccc3)c2C)c1
[6]
  EC50: > 30 µM (not active)

## O=C1NC(=O)N(c2ccc3c(c2)OCO3)C(=O)/C1=C\c1ccc(N2CCCCC2)o1
[7]
  IC50: > 55.7 µM (not active)
Insulin-degrading enzyme
  IC50: 21 µM (not active)
[8]
  EC50: > 100 µM (active)

## NC(=O)C1CCN(C(=O)c2cc(-c3ccccc3)on2)CC1
[9]
  EC50: > 50 µM (not active)
[10]
  EC50: > 50 µM (not active)
[11]
  EC50: > 10 µM (not active)

## COc1ccc(C(=O)C2=C(O)C(=O)N(CC3CCCO3)C2c2cccc(OC)c2)cc1 (stereo not given)
[12]
  IC50: > 100 µM (inactive)
[13]
  IC50: > 100 µM (not active)
